Experimental data taken from patent publication US10189791B2, “Pyridyl analogs of 1-(2-cyano-3,12-dioxooleana-1,9(11)dien-28-oyl) imidazole” (Trustees of Dartmouth College, priority 2014, dated 2019).
Read-outs that look alike come from different tables or passages of the source.

Assays:
[1] = test system: RA W264.7 macrophage-like cells; experiment: Inhibition of IFNγ-stimulated nitric oxide release (Griess reaction); type: cell-based; conditions: 10 ng/ml IFNγ, 24 hour exposure, read-out: IC50 (nM) Mean ± SE, NO production
Description: Because oxidative and inflammatory stress contribute to carcinogenesis (Albini & Sporn (2007) Nature Rev. Cancer 7:139-147), it was determined whether the pyridine analogues could block de novo synthesis of inducible nitric oxide synthase (iNOS), a critical enzyme involved in the inflammatory response (Kroncke, et al. (1998) Clin. Exp. Immunol. 113:147-156; Zamora, et al. (2000) Mol. Med. 6:347-373). Nitric oxide release was determined in RA W264.7 macrophage-like cells, after stimulation with 10 ng/ml interferon-γ (IFNγ) and a 24 hour-exposure to each compound at 0.625, 1.3, 2.5, 5, 10 and 20 nM. NO release was measured by Griess reaction and compared to CDDO-Im, which is a potent suppressor of iNOS (Place, et al. (2003) Clin. Cancer Res. […]:2798-2806).

U937 leukemia cell line = experiment: U937 monocytic differentiation assay (CD11b surface marker, flow cytometry); type: cell-based; conditions: for activity to induce differentiation of U937 cells (in words): 4 days
Description: CDDO-Im 1 is a potent inducer of differentiation in U937 cells (Place, et al. (2003) Clin. Cancer Res. 9:2798-2806). Therefore, the activity of the CDDO-Im analogs was evaluated using the U937 leukemia cell line. CD11b (also known as Mac-1α or CR3 complement receptor) was used as a surface marker of monocytic differentiation, and its expression was measured by flow cytometry after 4 days of treatment with CDDO-Phenyl-Im 2, CDDO-3P-Im 3, CDDO-2P-Im 4, CDDO-4P-Im 5, CDDO-Im 1 (as positive control) or vehicle (DMSO). […] Indeed, the highest level of differentiation was obtained using 100 nM of CDDO-2P-Im (approximately a 4-fold induction of CD11b).

[2] = Tissue distribution after single gavage in C57BL/6 mice (LC-MS); type: in vivo; conditions: for bioavailability / drug levels in organs (in words): compared with CDDO-Im 1; for Compound Concentration Mean ± SE, Kidney / Compound Concentration Mean ± SE, Liver / Compound Concentration Mean ± SE, Lungs / Compound Concentration Mean ± SE, Pancreas / Compound Concentration Mean ± SE, Plasma / Compound Concentration Mean ± SE, Whole Blood: six hours after single gavage with 1 μmole
Description: To determine concentrations of the CDDO-Im analogs in various organs, an in vivo evaluation was conducted in C57BL/6 mice. Six hours after a single gavage with 1 μmole of compound, the mice were sacrificed and the tissues were collected.

[3] = Stability in human plasma at 37° C. (LC-MS); type: in vitro ADME; conditions: for percent of starting material remaining in plasma: after a 1-hour incubation; for stability in human plasma (in words): up to 6 hours
Description: Since CDDO-Im is not stable in human plasma, the stability of the CDDO-Im analogs was determined. Compounds were incubated in human plasma at 37° C. for up to 6 hours. The compounds were extracted with acetonitrile at six different time points (0, 0.5, 1, 2, 4 and 6 hours), centrifuged, and the percent of starting material remaining in the supernatant was measured by liquid chromatography-mass spectrometry (LC-MS). […] The concentrations then decreased gradually over 6 hours. […] Unexpectedly, the CDDO-Im analogs are metabolized differently from CCDO-Im, as no traces of CDDO were detected with any of the other compounds at any time point. Instead, an oxidized derivative was detected on the chromatogram, in the form of an adduct on the molecule of +16 in MW (N-oxide).

HO-1 = experiment: Induction of HO-1 mRNA in mouse liver, kidney and lung (real-time PCR); type: in vivo, mice; conditions: for HO-1 level relative to CDDO-Im / HO-1 mRNA fold induction compared to the vehicle control: liver; for HO-1 mRNA fold induction compared to the vehicle control: six hours after gavage with 1 μmole; for HO-1 induction (in words): kidney
From the text: (§1) FIG. 2A and FIG. 2B show the induction of cytoprotective enzyme expression in mouse liver, kidney and lung. CB57BL/6 mice were gavaged with 1 μmole of each triterpenoid. Six hours later, organs were harvested, RNA was extracted, and mRNA levels for HO-1 (FIG. 2A) and NQO1 (FIG. 2B) were quantified by real-time PCR analysis. Results are presented as the fold induction for each compound compared to the vehicle (DMSO) control. Data are presented as mean±SE of six mice per group.
Synthetic triterpenoids such as CDDO-Im strongly activate the Nrf2/ARE pathway; Nrf2 is a transcription factor that regulates numerous cytoprotective and anti-inflammatory genes (Liby, et al. (2005) Cancer Res. 65:4789-98; Yates, et al. (2007) Mol. Cancer Therapeut. 6:154-62). Therefore, the ability of the new pyridine compounds to induce transcription of the Nrf2 target genes HO-1 and NQ01 in vivo was assessed. […] In the liver, CDDO-3P-Im and CDDO-2P-Im induced high levels of HO-1, which were about 3 times more elevated than with CDDO-Im (13.4- and 15.2-fold, respectively vs. 4.9-fold for CDDO-Im). […] The results obtained in lungs were, on the other hand, unexpected.

U937 cells = experiment: Apoptosis in U937 cells (annexin V staining); type: cell-based; conditions: U937 cells treated for 48 hours
NQO1 = experiment: Induction of NQO1 mRNA in mouse liver, kidney and lung (real-time PCR); type: in vivo, mice
From the text: as §1
Because HO-1 is regulated by transcription factors in addition to Nrf2 (Alam, et al. (1999) J. Biol. Chem. 274:26071-8; Kensler, et al. (2007) Ann. Rev. Pharmacol. Toxicol. 47:89-116), induction of the prototypical Nrf2 target gene NQO1 was also examined.

[4] = 30 nM, compared with CDDO-Im and CDDO-3P-Im
[5] = six hours after gavage with 1 μmole
[6] = six hours after gavage with 1 μmole, read-out: concentration in the pancreas
[7] = 30 nM, 4 days of treatment, U937 cells

Row | Compound | IC50 [1] | activity to induce differentiation of U937 cells (in words) (U937 leukemia cell line; [4]) | activity to induce differentiation of U937 cells (in words) (U937 leukemia cell line; 100 nM) | bioavailability / drug levels in organs (in words) [2] | concentration in the liver [2, 5] | drug levels in the lungs [2, 5] | concentration at 6 h [2, 6] | Compound Concentration Mean ± SE, Kidney [2] | Compound Concentration Mean ± SE, Liver [2] | Compound Concentration Mean ± SE, Lungs [2] | Compound Concentration Mean ± SE, Pancreas [2] | Compound Concentration Mean ± SE, Plasma [2] | Compound Concentration Mean ± SE, Whole Blood [2] | percent of starting material remaining in plasma ([3]; 37° C.) | stability in human plasma (in words) ([3]; 37° C.) | HO-1 level relative to CDDO-Im (HO-1; six hours after gavage) | HO-1 mRNA fold induction compared to the vehicle control (HO-1) | induction of CD11b expression compared to the DMSO-treated cells (U937 leukemia cell line; [7]) | cell death in the differentiation assay (U937 leukemia cell line; 100 nM) | annexin V staining, a marker of early apoptosis (U937 cells) | further results
1 | CC1(C)CCC2(C(=O)n3cnc(-c4ccccn4)c3)CCC3(C)C(C(=O)C=C4C5(C)C=C(C#N)C(=O)C(C)(C)C5CCC43C)C2C1 (stereo not drawn) [CDDO-2P-Im 4] | 5.8 ± 1.1 nM | less active | enhanced the activity | better than for CDDO-Im 1 | 12000 to 15000 nM | greater than 2.5 μM | 3500 nM | 3.70 ± 0.55 µmol/kg | 14.9 ± 2.58 µmol/kg | 2.63 ± 0.41 µmol/kg | 3.55 ± 0.39 µmol/kg | 0.52 ± 0.02 µmol/kg | 0.53 ± 0.02 µmol/kg | more than 85% | the most stable analog | about 3 times | 15.2 fold |  |  |  | induction of CD11b (U937 leukemia cell line; 100 nM, 4 days of treatment, U937 cells): ~4 fold; percent left in plasma ([3]; after 4 hours, 37° C.): more than 50%
2 | CC1(C)CCC2(C(=O)n3cnc(-c4cccnc4)c3)CCC3(C)C(C(=O)C=C4C5(C)C=C(C#N)C(=O)C(C)(C)C5CCC43C)C2C1 (stereo not drawn) [CDDO-3P-Im 3] | 4.3 nM |  |  | better than for CDDO-Im 1 |  | greater than 2.5 μM | 2500 nM | 1.47 ± 0.24 µmol/kg | 5.9 ± 0.57 µmol/kg | 2.49 ± 0.44 µmol/kg | 2.52 ± 0.24 µmol/kg | 0.15 ± 0.04 µmol/kg | 0.16 ± 0.02 µmol/kg |  | more stable than CDDO-Im | about 3 times | 13.4 fold | ~3 fold | induced cell death | increased annexin V staining | 
3 | CC1(C)CCC2(C(=O)n3cnc(-c4ccncc4)c3)CCC3(C)C(C(=O)C=C4C5(C)C=C(C#N)C(=O)C(C)(C)C5CCC43C)C2C1 (stereo not drawn) [CDDO-4P-Im 5] | 9 ± 0.6 nM | less active | enhanced the activity |  |  |  |  | 0.35 ± 0.06 µmol/kg | 2.8 ± 0.47 µmol/kg | 0.17 ± 0.05 µmol/kg | 0.30 ± 0.04 µmol/kg | 0.03 ± 0.01 µmol/kg | 0.04 ± 0.1 µmol/kg | 42% | more stable than CDDO-Im |  |  |  |  |  | HO-1 induction (in words) (HO-1): less potent than CDDO-Im; HO-1 transcript level relative to CDDO-Im or any of the other compounds (HO-1; lungs, six hours after gavage): about 3 times
4 | CC1(C)CCC2(C(=O)n3ccnc3)CCC3(C)C(C(=O)C=C4C5(C)C=C(C#N)C(=O)C(C)(C)C5CCC43C)C2C1 (stereo not drawn) [CDDO-Im 1, 1-(2-cyano-3,12-dioxooleana-1,9(11)-dien-28-oyl) imidazole, reference compound] |  |  |  |  |  |  |  | 0.24 ± 0.08 µmol/kg | 1.7 ± 0.32 µmol/kg | 0.19 ± 0.05 µmol/kg | 0.31 ± 0.09 µmol/kg | 0.06 ± 0.02 µmol/kg | 0.03 ± 0.01 µmol/kg |  | rapidly metabolized |  |  | ~3 fold | induced cell death | increased annexin V staining | IC50 ([1]; Mus musculus, RAW264.7): 2 nM; rank of NQO1 mRNA induction (in words) (NQO1; liver and kidney): the most potent compound; concentration at 6 h ([2]; C57BL/6, mouse, liver, oral, six hours after gavage with 1 μmole, read-out: concentration in the liver): 1700 nM; concentration at 6 h ([2]; C57BL/6, mouse, lung, oral, six hours after gavage with 1 μmole, read-out: drug levels in the lungs): 200 nM; concentration at 6 h ([2]; C57BL/6, mouse, pancreas, oral, six hours after gavage with 1 μmole, read-out: concentration in the pancreas): ~300 nM; transformation product in human plasma (in words) ([3]; LC-MS, all time points): essentially converted to its parent molecule; percent of compound lost in human plasma ([3]; within 30 minutes, 37° C.): more than 88%; percent of compound lost in human plasma ([3]; within the next 5 hours (6 hour incubation), 37° C.): 98%
5 | CC1(C)CCC2(C(=O)n3cnc(-c4ccccc4)c3)CCC3(C)C(C(=O)C=C4C5(C)C=C(C#N)C(=O)C(C)(C)C5CCC43C)C2C1 (stereo not drawn) [CDDO-Phenyl-Im 2] | 14.7 nM | less active |  | better than for CDDO-Im 1 | 12000 to 15000 nM |  | 2000 nM | 5.79 ± 0.25 µmol/kg | 12.2 ± 1.27 µmol/kg | 1.28 ± 0.17 µmol/kg | 1.97 ± 0.19 µmol/kg | 0.12 ± 0.01 µmol/kg | 0.35 ± 0.03 µmol/kg |  | more stable than CDDO-Im |  |  |  |  |  | NQO1 mRNA induction (in words) (NQO1; liver, compared with CDDO-Im): markedly less potent than CDDO-Im; concentration in kidneys [2, 5]: 5800 nM; HO-1 induction (in words) (HO-1): markedly less potent
